In patent US20220397564A1, “ENGINEERING SPATIAL-ORGANIZED CARDIAC ORGANOIDS FOR DEVELOPMENTAL TOXICITY TESTING” (priority 2021, published 2022):
Like-named read-outs stand apart in the source and are kept apart here.

Assays:
[1] = system: hiPSC-based cardiac organoids; details: for concentration at which cardiac organoids/tissue failed to differentiate (cardiac differentiation abolished) / concentration with no contractile functions (stopped beating) / organoid formation: human; for organoid formation: 100 μM
zebrafish embryos = details: for embryos expressing the GFP transgene: Tg(my17:GFP); for proportion of embryos with normal (D-looped) heart looping: across / at higher concentrations
[2] = system: cardiac organoids (cTnT positive cells); experiment: flow cytometry of cardiac differentiation efficiency (cTnT) of drug-treated organoids; format: cell-based, human; details: with increasing treatment concentration
Protocol: Cardiac organoids were dissociated using 0.25% Trypsin for 10-15 minutes. Cells were collected, centrifuged and washed with PBS. Cells were fixed and permeabilized with a mixture of 4% (vol/vol) paraformaldehyde and 0.2% (vol/vol) TritonX solution for 15 minutes. Cells were incubated with primary antibody cardiac troponin T (Thermofisher cat. no. MA5-12960) in a 1:250 dilution for 1 hour in PBS, and then incubated with AlexaFluor 546 secondary fluorophore for an additional hour. The cell suspension was washed, centrifuged and filtered through 35 μm mesh cell strainer. Flow cytometry was performed on the BDAccuriC6 at Flow Cytometry Core at Syracuse University.
Concentrations were chosen after evaluation of blood plasma concentrations reported for each drug from the FDA drug information database (accessdata.FDA.gov). Concentrations were chosen to be at or approximated by blood plasma concentrations, while accounting for drug solubility in water or DMSO, while also supplying a large range in order to detect potential toxicity. Drugs were diluted in the appropriate culture media at three concentrations each increasing by a factor of 10 with respective controls. […] Samples were terminated on Day 20 for motion tracking analysis and for fluorescence/confocal imaging to assess the developmental toxicity of specific drugs based on the organoid morphology and contractile physiology.

[3] = system: hiPSC-based cardiac organoids; experiment: cardiac developmental toxicity assay on hiPSC-derived cardiac organoids (differentiation, contractile behavior, 3D morphology)

Row | SMILES | concentration at which cardiac organoids/tissue failed to differentiate (cardiac differentiation abolished) [1] [µM] | developmental toxicity (cardiac looping) (zebrafish embryos; zebrafish, in vivo) | developmental toxicity on zebrafish embryonic heart development (cardiac looping) (zebrafish embryos; zebrafish, in vivo) | beat rate [1] | organoid formation / 3D organoid morphology [1] | FWHM [1] | height [1] | also measured
1 | CC1=C(/C=C/C(C)=C/C=C/C(C)=C/C(=O)O)C(C)(C)CCC1 [Tretinoin, all-trans-retinoic acid] | 10 | severe developmental toxic effects | severe defects |  |  |  |  | effect on cardiac differentiation [1]: abolished all cardiac differentiation; concentration with no contractile functions (stopped beating) [1]: 10 µM; embryos expressing the GFP transgene (zebrafish embryos; zebrafish, in vivo, 48 hpf): 0%
2 | CN(C)CCOC(C)(c1ccccc1)c1ccccn1 (stereo not shown) [Doxylamine Succinate] |  |  |  | slower | no drug effects |  |  | percentage of cells expressing cTnT [2]: did not affect; effect on contractile functions (overall) [1]: prominent effects; proportion of embryos with normal (D-looped) heart looping (zebrafish embryos; 48 hpf): considerable proportion
3 | CC1=C(/C=C/C(C)=C/C=C/C(C)=C\C(=O)O)C(C)(C)CCC1 [Isotretinoin, 13-cis-retinoic acid] | 1 | severe developmental toxic effects | severe defects |  | large organoids |  |  | embryos expressing the GFP transgene (zebrafish embryos; zebrafish, in vivo, 48 hpf): 0%
4 | C[C@H]1c2cccc(O)c2C(=O)C2=C(O)[C@]3(O)C(=O)C(C(N)=O)=C(O)[C@@H](N(C)C)[C@@H]3[C@@H](O)[C@@H]21 [Doxycycline] | 100 | severe developmental toxic effects | moderate toxicity | Significant toxicity |  | Significant toxicity | Significant toxicity | beat duration [1]: Significant toxicity; contraction velocity [1]: Significant toxicity; organoid formation [1]: failed to create 3D organoids
5 | O=C([O-])[O-].[Li+].[Li+] [Lithium Carbonate] |  |  |  |  |  |  |  | organoid formation / 3D organoid morphology ([3]; all tested concentrations or not specified, vs controls): mild toxicity; effect on cardiac differentiation ([3]; concentration not specified): slight reduction; effect on contractile functions (overall) ([3]; concentration not specified, listed as lithium): did not affect; effect on contractile functions (overall) ([3]; concentration not specified, listed as lithium carbonate): no significant toxicity effects; FWHM ([3]; high / higher concentrations (thalidomide in b100: 100 μM)): moderate toxicity; developmental toxicity (cardiac looping) (zebrafish embryos; 48 hpf, all concentrations): severe developmental toxic effects; developmental toxicity on zebrafish embryonic heart development (cardiac looping) (zebrafish embryos; 48 hpf, concentration not specified): moderate toxicity
6 | CO[C@H]1/C=C/O[C@@]2(C)Oc3c(C)c(O)c4c(O)c(c(/C=N/N5CCN(C)CC5)c(O)c4c3C2=O)NC(=O)/C(C)=C\C=C\[C@H](C)[C@H](O)[C@@H](C)[C@@H](O)[C@@H](C)[C@H](OC(C)=O)[C@@H]1C [Rifampicin] | 100 | mild embryotoxic effects | mild developmental toxic effect | toxicity |  | toxicity | toxicity | contraction velocity [1]: toxicity; organoid formation [1]: severe developmental toxicity at a high concentration (100 μM) with no organoid formation
7 | O=C1CCC(N2C(=O)c3ccccc3C2=O)C(=O)N1 (stereo not shown) [Thalidomide] |  | very mild toxicity level | not as significant as what was observed in the organoid model | high variability | abnormal cardiac organoids |  |  | percentage of cells expressing cTnT [2]: considerable reduction; area ratio [1]: decrease; area ratio of cardiac muscle coverage [1]: less cardiac tissue coverage; proportion of embryos with normal (D-looped) heart looping (zebrafish embryos; 48 hpf): did not notably decrease
8 | CC1(C)S[C@@H]2[C@H](NC(=O)[C@H](N)c3ccc(O)cc3)C(=O)N2[C@H]1C(=O)O [Amoxicillin] |  |  |  | decreased |  | smaller | smaller | beat duration [1]: increased
9 | O=C1NC(=O)C(c2ccccc2)(c2ccccc2)N1 [Phenytoin] |  | mild embryotoxic effects | mild developmental toxic effect |  | smaller cardiac organoids than controls, but still maintained structural integrity | smaller | smaller | concentration with no contractile functions (stopped beating) [1]: 100 µM
